The IC50 is the concentration at which inhibition is half-maximal.

Some results are limits rather than exact numbers.

The target in experiment [1] is T1, complement C5a receptor 1 (C5aR1) (Homo sapiens, UniProt P21730).
T1 construct: β-galactosidase fragment (PathHunter enzyme complementation); host or cells: CHO-K1 (PathHunter CHO-K1 C5aR1 β-arrestin cell line)
T1 sequence (P21730 1-350): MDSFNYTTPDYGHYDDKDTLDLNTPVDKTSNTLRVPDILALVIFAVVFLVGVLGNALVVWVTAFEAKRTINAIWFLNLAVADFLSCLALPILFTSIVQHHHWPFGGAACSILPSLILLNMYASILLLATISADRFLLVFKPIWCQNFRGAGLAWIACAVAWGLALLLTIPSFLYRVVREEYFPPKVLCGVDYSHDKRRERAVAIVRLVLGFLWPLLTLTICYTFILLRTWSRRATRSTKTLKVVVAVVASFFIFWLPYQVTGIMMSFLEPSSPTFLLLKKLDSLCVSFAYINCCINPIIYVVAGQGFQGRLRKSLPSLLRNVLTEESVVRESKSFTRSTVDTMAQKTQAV
Put plainly: β-arrestin recruitment via C5aR1 activation in live CHO-K1 cells (PathHunter), agonist mode. The format is cell-based. The gist of the method: (§1)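 Live CHO-K1 cells carry two galactosidase enzyme fragments, one fused to β-arrestin and one to C5aR1, so that β-arrestin recruitment restores enzyme activity. Agonist mode tests compounds alone. Antagonist mode tests them against recombinant hC5a at EC90, and IC50 values are reported in binned ranges.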

Experiment [2] addresses T1, complement C5a receptor 1 (C5aR1). Briefly: β-arrestin recruitment via C5aR1 activation in live CHO-K1 cells (PathHunter), antagonist mode. Type of experiment: cell-based. The settings on record: antagonist mode; recombinant hC5a (EC90) as competing natural agonist; live CHO-K1 cells; read-out: [Antagonist] B-arrestin2 recruitment: Average IC50. The procedure, abridged: as §1
(In general: Activated receptors often draw arrestin, which recruitment assays turn into a signal.)

In the case of `Cc1ccc2cc([C@H]3CC[C@H](c4c(C)cccc4F)CC3)c(=O)n(Cc3ncccc3CC(F)F)c2n1` [compound 268, 1-{[3-(2,2-Difluoroethyl)-2-pyridyl]methyl}-7-methyl-3-[(1r,4r)-4-(2-fluoro-6-tolyl)cyclohexyl]-1,8-diaza-2(1H)-naphthalenone], in experiment [1], the “[Agonist] B-arrestin2 recruitment: Average EC50 (nM)” value is given as “Non-Active”. In addition, the IC50 in experiment [2] was less than 500 nM.

For the origin of these results see US20260317320A1, “C5AR1 ANTAGONISTS AND USES THEREOF” (Vanqua Bio, Inc., priority 2022, published 2026).
